Values quoted from earlier work in patent US20070293534A1, “Process for the preparation of mivacurium chloride” (FARMABIOS S.P.A., priority 2006, published 2007).

Conditions: for neuromuscolar blocking potencies compared with each other: trans-trans versus cis-trans diastereoisomer

Row | Compound | neuromuscolar blocking potency relative to the other two diastereoisomers (fraction of the potency of the trans-trans and cis-trans diastereoisomers, estimated) | neuromuscolar blocking potencies compared with each other
1 | COc1cc2c(cc1OC)[C@@H](Cc1cc(OC)c(OC)c(OC)c1)[N@@+](C)(CCCOC(=O)CC/C=C/CCC(=O)OCCC[N@@+]1(C)CCc3cc(OC)c(OC)cc3[C@H]1Cc1cc(OC)c(OC)c(OC)c1)CC2.[Cl-].[Cl-] (single isomer, unassigned) [cis-cis diastereoisomer] | approximately one tenth | –
2 | COc1cc2c(cc1OC)[C@@H](Cc1cc(OC)c(OC)c(OC)c1)[N@@+](C)(CCCOC(=O)CC/C=C/CCC(=O)OCCC[N@+]1(C)CCc3cc(OC)c(OC)cc3[C@H]1Cc1cc(OC)c(OC)c(OC)c1)CC2.[Cl-].[Cl-] [cis-trans] | – | not significantly different from each other
3 | COc1cc2c(cc1OC)[C@@H](Cc1cc(OC)c(OC)c(OC)c1)[N@+](C)(CCCOC(=O)CC/C=C/CCC(=O)OCCC[N@+]1(C)CCc3cc(OC)c(OC)cc3[C@H]1Cc1cc(OC)c(OC)c(OC)c1)CC2.[Cl-].[Cl-] [trans-trans] | – | not significantly different from each other
